Data from patent publication US20050058665A1, “Identification of virulence determinants activators in prokaryotic pathogens” (Boston Medical Center Corporation, priority 1998, published 2005).

Tests used:
DtxR = target: T1, DtxR (Corynebacterium diphtheriae, UniProt P0DJL7); experiment: PSDT system, chloramphenicol resistance phenotype of the indicator strain; type: cell-based; details: E. coli TOP10/λRS65T/pSC6/pRDA; DP added to growth medium
T1 construct: expressed in transfected cells; host or cells: E. coli TOP10/λRS65T/pSC6/pRDA
T1 sequence (P0DJL7 1-226): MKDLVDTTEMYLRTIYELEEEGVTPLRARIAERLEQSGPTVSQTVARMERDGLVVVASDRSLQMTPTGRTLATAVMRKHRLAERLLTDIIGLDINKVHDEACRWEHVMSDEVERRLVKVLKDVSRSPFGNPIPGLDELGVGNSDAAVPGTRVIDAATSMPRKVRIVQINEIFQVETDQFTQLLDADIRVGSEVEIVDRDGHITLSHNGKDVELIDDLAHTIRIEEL
Excerpt: Development of the PSDT System. The PSDT system, which consists of a lysogenic E. coli TOP1O host strain carrying the reporter gene cat on an integrated λ phage, λRS65T, and a set of detector plasmids, is illustrated in FIG. 1. Expression of cat on λRS65T is controlled by the tetA promoter/operator (tetAPO), and, in the absence of the tetracycline repressor (TetR), E. coli TOP10/λRS65T is resistant to chloramphenicol (Cm^R).
We next constructed the detector plasmid pSC6, which carries the tetR gene under the control of the diphtheria toxPO. When pSC6 is transformed into E. coli TOP10/λRS65T, the bacterial host strain becomes Cm-sensitive (Cm^S) by virtue of the constitutive expression of tetR, which recognizes and binds to the tetAO and represses cat gene expression. However, if a functional dtxR allele is introduced into the bacterial host on a second compatible plasmid, PRDA, the interaction between DtxR and the toxO will repress the expression of tetR, and the bacterial host, E. coli TOP10/λRS65T/pSC6/pRDA, then will regain its CM^rphenotype.

toxPO-lacZ = experiment: β-galactosidase assay in toxPO-lacZ reporter strain; type: cell-based; details: E. coli DH5α/λRS45 toxPO; LB broth, absence or presence of increasing concentrations of DP (up to 250 μM)
Procedure: β-Galactosidase Assay. β-galactosidase activity was measured essentially as described by Miller (Miller, J. H. (1972) Experiments in Molecular Genetics (Cold Spring Harbor Lab. Press, Plainview, N.Y.)). In brief, 0.5 ml of an overnight culture at ^A600 of =1.0 were lysed by the addition of lysis mix (chloroform:10% SDS, 2:1), vortexing the mixture for 10 sec and transferring 200 μl to 800 ul lacZ buffer (60 mM Na2HPO4/40 mM NaH2PO4/10 mM KCl/1 mM MgSO4/50 mM β-mercaptoethanol). The reaction was initiated by adding 200 μl of o-nitrophenyl β-D-galactopyranoside (Sigma) (4 mg/ml). After incubation at room temperature (5 min-1 hr), the reaction was stopped by the addition of 0.5 ml of 1M sodium carbonate. Absorbance was measured at 420 and 550 nm, and β-galactosidase units were calculated according to Miller, supra.
The resulting plasmids were designated pDM2, pDM3, pDM11, and pDM5, respectively. The pDM series of plasmids then were transformed individually into E. coli DH5α/λRS45 toxPO. This reporter strain carries a transcriptional fusion in which the lacZ gene is under the control of the diphtheria toxPO, toxPO-lacZ, and, as a result, the synthesis of β-galactosidase is regulated by their respective dtxR gene products. Individual strains were grown in LB broth supplemented with appropriate antibiotics in either the absence or presence of increasing concentrations of DP. […]

For `c1ccc(-c2ccccn2)nc1` [DP, 2,2′-dipyridyl], the chloramphenicol resistance phenotype (DtxR) was “phenotypic conversion from Cm^R to Cm^S”.

B1: wild-type DtxR (protein, UniProt P0DJL7 1-226, looked up)
Diphtheria toxin repressor: MKDLVDTTEMYLRTIYELEEEGVTPLRARIAERLEQSGPTVSQTVARMERDGLVVVASDRSLQMTPTGRTLATAVMRKHRLAERLLTDIIGLDINKVHDEACRWEHVMSDEVERRLVKVLKDVSRSPFGNPIPGLDELGVGNSDAAVPGTRVIDAATSMPRKVRIVQINEIFQVETDQFTQLLDADIRVGSEVEIVDRDGHITLSHNGKDVELIDDLAHTIRIEEL
In the case of B1, the β-galactosidase activity (toxPO-lacZ) is reported as “β-galactosidase activity increases”.
